Experimental data from ChEMBL document CHEMBL1667805, “Synthesis of new C5-(1-substituted-1,2,3-triazol-4 or 5-yl)-2'-deoxyuridines and their antiviral evaluation” (Eur J Med Chem, 2011).
Active and inactive are the calls of the source. No cut-off for these calls is given here.

Legend:
CCRF-CEM = test: cells; settings: Homo sapiens, 72 h
Coxsackievirus B4 = format: functional, organism-based; settings: HeLa
Sindbis virus = format: functional, organism-based; settings: Vero
Human alphaherpesvirus 1 [1] = test: microbe, parasite or virus in culture; settings: Human alphaherpesvirus 1, KOS, HEL
[2] = tested on: Human immunodeficiency virus 2; test: Antiviral activity against HIV2 ROD infected in human […] cells assessed as virus-induced CEM giant cell formation after 4 days; format: functional, organism-based; settings: ISOLATE ROD
Influenza B virus = format: functional, organism-based; settings: MDCK
HeLa = test: cells; settings: Homo sapiens, 96 h
Human alphaherpesvirus 1 [3] = test: microbe, parasite or virus in culture; settings: Human alphaherpesvirus 1, KOS, HEL; remark: listed apart in the source
Punta Toro virus = format: functional, organism-based; settings: Vero
Human betaherpesvirus 5 [4] = test: microbe, parasite or virus in culture; settings: Human betaherpesvirus 5, AD169, HEL
Vaccinia virus = test: microbe, parasite or virus in culture; settings: Orthopoxvirus vaccinia, HEL
Human betaherpesvirus 5 [5] = test: microbe, parasite or virus in culture; settings: Human betaherpesvirus 5, Davis, HEL
Human respirovirus 3 = format: functional, organism-based; settings: Vero
[6] = tested on: Vesicular stomatitis virus; format: functional, organism-based; settings: MDCK
Human alphaherpesvirus 2 = test: microbe, parasite or virus in culture; settings: Human alphaherpesvirus 2, strain G, HEL
L1210 = test: cells; settings: Mus musculus, L1210, 48 h
in vitro = settings: human, HEL cells
Influenza A virus [7] = format: functional, organism-based; settings: H3N2, MDCK
Human alphaherpesvirus 3 [8] = test: microbe, parasite or virus in culture; settings: Human alphaherpesvirus 3, 07-1, HEL
Influenza A virus [9] = format: functional, organism-based; settings: H1N1, MDCK
Human alphaherpesvirus 3 [10] = test: microbe, parasite or virus in culture; settings: Human alphaherpesvirus 3, strain Oka vaccine, HEL
[11] = tested on: Vesicular stomatitis virus; format: functional, organism-based; settings: HeLa
[12] = tested on: Mammalian orthoreovirus 1; format: functional, organism-based; settings: Vero
[13] = tested on: Human immunodeficiency virus 1; test: Antiviral activity against HIV1 3B infected in human […] cells assessed as virus-induced CEM giant cell formation after 4 days; format: functional, organism-based

SMILES | IC50 (CCRF-CEM) [µM] | inhibition (Coxsackievirus B4) | inhibition (Sindbis virus) | EC50 (Human alphaherpesvirus 1 [1]) [µM] | inhibition [2] | inhibition (Influenza B virus) | IC50 (HeLa) [µM] | EC50 (Human alphaherpesvirus 1 [3]) [µM] | inhibition (Punta Toro virus) | EC50 (Human betaherpesvirus 5 [4]) [µM] | EC50 (Vaccinia virus) [µM] | EC50 (Human betaherpesvirus 5 [5]) [µM] | inhibition (Human respirovirus 3) | inhibition [6] | EC50 (Human alphaherpesvirus 2) [µM] | IC50 (L1210) [µM] | CC50 at 72 h (in vitro) [µM] | MCC at 72 h (in vitro) [µM] | inhibition (Influenza A virus [7]) | EC50 (Human alphaherpesvirus 3 [8]) [µM] | further results
O=c1[nH]c(=O)n([C@H]2C[C@H](O)[C@@H](CO)O2)cc1-c1cn(-c2ccc(OC(F)(F)F)cc2)nn1 | 35 | inactive | inactive | > 50 | inactive | inactive | 37 | > 50 | inactive | > 220 | > 50 | > 220 | inactive | inactive | > 50 | 50 | 47 | > 220 | inactive | > 50 | inhibition (Influenza A virus [9]): inactive; EC50 (Human alphaherpesvirus 3 [10]): > 50 µM; inhibition [11]: inactive; inhibition [12]: inactive; inhibition [13]: inactive
CSc1ccc(-n2cc(-c3cn([C@H]4C[C@H](O)[C@@H](CO)O4)c(=O)[nH]c3=O)nn2)cc1 | 50 | inactive | inactive | > 50 | inactive | inactive | 23 | > 50 | inactive | > 50 | > 50 | > 50 | inactive | inactive | > 50 | 62 | 27 | > 230 | inactive | > 50 | inhibition (Influenza A virus [9]): inactive; EC50 (Human alphaherpesvirus 3 [10]): 27 µM; inhibition [11]: inactive; inhibition [12]: inactive; inhibition [13]: inactive
O=c1[nH]c(=O)n([C@H]2C[C@H](O)[C@@H](CO)O2)cc1-c1cn(-c2ccc([N+](=O)[O-])cc2)nn1 | > 100 | inactive | inactive | > 50 | inactive | inactive | > 100 | > 50 | inactive | > 50 | > 50 | > 50 | inactive | inactive | > 50 | > 100 | 136 | 240 | inactive | > 50 | inhibition (Influenza A virus [9]): inactive; EC50 (Human alphaherpesvirus 3 [10]): > 50 µM; inhibition [11]: inactive; inhibition [12]: inactive; inhibition [13]: inactive
CC(C)c1ccc(-n2cc(-c3cn([C@H]4C[C@H](O)[C@@H](CO)O4)c(=O)[nH]c3=O)nn2)cc1 | 22 | inactive | inactive | > 10 | inactive | inactive | 6.2 | > 10 | inactive | 240 | > 10 | 185 | inactive | inactive | > 10 | 29 | 7.4 | > 240 | inactive | 97 | inhibition (Influenza A virus [9]): inactive; EC50 (Human alphaherpesvirus 3 [10]): 20 µM; inhibition [11]: inactive; inhibition [12]: inactive; inhibition [13]: inactive
